Source: patent publication US9931327B2, “Derivatives of 1-phenyl-2-pyridinyl alkyl alcohols as phosphodiesterase inhibitors” (Chiesi Farmaceutici S.p.A., priority 2011, dated 2018)
Structures can show the parent of a compound that is named as a salt.

system: LPS-induced TNF-α release in peripheral blood mononuclear cells (PBMCs); experiment: In vitro determination of PDE4 inhibitory activity in the PBMCs assay (LPS-induced TNF-α release); format: cell-based, human; conditions: PBMC; human PBMCs, LPS 3 ng/ml, 18 hours, TNF-α by ELISA; read-out: PDE4 inhibition (IC50, 50% inhibition of LPS-induced TNF-α release)
Experimental: The assay, which is based on the known inhibitory activity exerted by PDE4 inhibitors on the lipopolyshaccarides (LPS)-induced tumour necrosis factor-alpha (TNF-α release in peripheral blood mononuclear cells (PBMCs), was performed according to a method previously described (Hatzelmann A et al., J. Pharmacol. Exp. Ther., 2001; 297:267-279; and Draheim R et al., J. Pharmacol. Exp. Ther., 2004; 308:555-563, which are incorporated herein by reference in their entireties). Cryopreserved human PBMCs, (100 l/well) were incubated in 96-well plates (10^5 cells/well), for 30 minutes, in the presence or absence (50 microl) of the test compounds whose concentrations ranged from 10^−12 M to 10^−6 M or from […] to 10^−7 M. Subsequently, LPS (3 ng/ml) was added.
After 18 hours of incubation at 37° C. in a humidified incubator under an atmosphere of 95% air and 5% CO2, culture medium was collected and TNF-α measured by ELISA. The results of the tested compounds, representatives of the invention, expressed as mean±95% confidence limits of the molar concentration of the test compound producing 50% inhibition of LPS-induced TNF-α release (IC50) are shown in the following Table: […]

O=C(O[C@@H](Cc1c(Cl)c[n+]([O-])cc1Cl)c1ccc(OC(F)F)c(OCC2CC2)c1)[C@@H]1SCCN1C(=O)c1ccc(CN2CCS(=O)(=O)CC2)cc1 [Compound 40, 3,5-dichloro-4-((S)-2-(3-(cyclopropylmethoxy)-4-(difluoromethoxy)phenyl)-2-((S)-3-(4-(1,1-dioxothiomorpholinomethyl)benzoyl)thiazolidine-2-carbonyloxy)ethyl)pyridine 1-oxide] and CN(C)Cc1ccc(C(=O)N2CCSC2C(=O)O[C@@H](Cc2c(Cl)c[n+]([O-])cc2Cl)c2ccc(OC(F)F)c(OCC3CC3)c2)s1 (stereo partly drawn) [Compound 51, 3,5-dichloro-4-((2S)-2-(3-(cyclopropylmethoxy)-4-(difluoromethoxy)phenyl)-2-(3-(5-((dimethylamino)methyl)thiophene-2-carbonyl)thiazolidine-2-carbonyloxy)ethyl)pyridine 1-oxide formate] fall in the same range of IC50: 100 to 1000 pM for the first, 100 to 1000 pM for the second.

O=C(O[C@@H](Cc1c(Cl)c[n+]([O-])cc1Cl)c1ccc(OC(F)F)c(OCC2CC2)c1)[C@@H]1SCCN1C(=O)c1cccc(-c2cnco2)c1 [Compound 41, 3,5-dichloro-4-((S)-2-(3-(cyclopropylmethoxy)-4-(difluoromethoxy)phenyl)-2-((S)-3-(3-(oxazol-5-yl)benzoyl)thiazolidine-2-carbonyloxy)ethyl)pyridine 1-oxide] and O=C(O[C@@H](Cc1c(Cl)c[n+]([O-])cc1Cl)c1ccc(OC(F)F)c(OCC2CC2)c1)C1SCCN1S(=O)(=O)c1cccc(F)c1 (stereo partly drawn) [Compound 60, 3,5-dichloro-4-((2S)-2-(3-(cyclopropylmethoxy)-4-(difluoromethoxy)phenyl)-2-(3-(3-fluorophenylsulfonyl)thiazolidine-2-carbonyloxy)ethyl)pyridine 1-oxide] fall in the same range of IC50: 100 to 1000 pM for the first, 100 to 1000 pM for the second.

CS(=O)(=O)N(CCN1CCOCC1)c1cc(OCC2CC2)cc(C(=O)N2CCSC2C(=O)O[C@@H](Cc2c(Cl)c[n+]([O-])cc2Cl)c2ccc(OC(F)F)c(OCC3CC3)c2)c1 (stereo partly drawn) [Compound 49, 3,5-dichloro-4-((2S)-2-(3-(cyclopropylmethoxy)-4-(difluoromethoxy)phenyl)-2-(3-(3-(cyclopropylmethoxy)-5-(N-(2-morpholinoethyl)methylsulfonamido)benzoyl)thiazolidine-2-carbonyloxy)ethyl)pyridine 1-oxide formate] and O=C(O[C@@H](Cc1c(Cl)c[n+]([O-])cc1Cl)c1ccc(OC(F)F)c(OCC2CC2)c1)C1SCCN1S(=O)(=O)CC1CC1 (stereo partly drawn) [Compound 65, 3,5-dichloro-4-((2S)-2-(3-(cyclopropylmethoxy)-4-(difluoromethoxy)phenyl)-2-(3-(cyclopropylmethylsulfonyl)thiazolidine-2-carbonyloxy)ethyl)pyridine 1-oxide] fall in the same range of IC50: 100 to 1000 pM for the first, 100 to 1000 pM for the second.

CN(C)C(=O)c1cccc(S(=O)(=O)N2CCS[C@H]2C(=O)O[C@@H](Cc2c(Cl)c[n+]([O-])cc2Cl)c2ccc(OC(F)F)c(OCC3CC3)c2)c1 [Compound 52, 3,5-dichloro-4-((S)-2-(3-(cyclopropylmethoxy)-4-(difluoromethoxy)phenyl)-2-((S)-3-(3-(dimethylcarbamoyl)phenylsulfonyl)thiazolidine-2-carbonyloxy)ethyl)pyridine 1-oxide] and CN(C)C(=O)c1cccc(S(=O)(=O)N2CCSC2C(=O)O[C@@H](Cc2c(Cl)c[n+]([O-])cc2Cl)c2ccc(OC(F)F)c(OCC3CC3)c2)c1 (stereo partly drawn) [Compound 56, 3,5-dichloro-4-((2S)-2-(3-(cyclopropylmethoxy)-4-(difluoromethoxy)phenyl)-2-(3-(3-(dimethylcarbamoyl)phenylsulfonyl)thiazolidine-2-carbonyloxy)ethyl)pyridine 1-oxide] cannot be ordered by IC50: < 100 pM for the first, < 100 pM for the second.

First: COc1ccc(S(=O)(=O)N2CCC[C@H]2C(=O)O[C@@H](Cc2c(Cl)c[n+]([O-])cc2Cl)c2ccc(OC(F)F)c(OCC3CC3)c2)cc1OC [Compound 53, 3,5-dichloro-4-((S)-2-(3-(cyclopropylmethoxy)-4-(difluoromethoxy)phenyl)-2-((S)-1-(3,4-dimethoxyphenylsulfonyl)pyrrolidine-2-carbonyloxy)ethyl)pyridine 1-oxide]
Second: CN(C)C(=O)c1cccc(S(=O)(=O)N2CCC[C@H]2C(=O)O[C@@H](Cc2c(Cl)c[n+]([O-])cc2Cl)c2ccc(OC(F)F)c(OCC3CC3)c2)c1 [Compound 54, 3,5-dichloro-4-((S)-2-(3-(cyclopropylmethoxy)-4-(difluoromethoxy)phenyl)-2-((S)-1-(3-(dimethylcarbamoyl)phenylsulfonyl)pyrrolidine-2-carbonyloxy)ethyl)pyridine 1-oxide]
The IC50 of the first is higher: 100 to 1000 pM for the first, < 100 pM for the second.

CN(C)C(=O)c1cccc(S(=O)(=O)N2CCC[C@@H]2C(=O)O[C@@H](Cc2c(Cl)c[n+]([O-])cc2Cl)c2ccc(OC(F)F)c(OCC3CC3)c2)c1 [Compound 55, 3,5-dichloro-4-((S)-2-(3-(cyclopropylmethoxy)-4-(difluoromethoxy)phenyl)-2-((R)-1-(3-(dimethylcarbamoyl)phenylsulfonyl)pyrrolidine-2-carbonyloxy)ethyl)pyridine 1-oxide] and O=C(O[C@@H](Cc1c(Cl)c[n+]([O-])cc1Cl)c1ccc(OC(F)F)c(OCC2CC2)c1)C1SCCN1S(=O)(=O)c1cccc(Cl)c1 (stereo partly drawn) [Compound 63, 3,5-dichloro-4-((2S)-2-(3-(3-chlorophenylsulfonyl)thiazolidine-2-carbonyloxy)-2-(3-(cyclopropylmethoxy)-4-(difluoromethoxy)phenyl)ethyl)pyridine 1-oxide] fall in the same range of IC50: 100 to 1000 pM for the first, 100 to 1000 pM for the second.

First: O=C(O[C@@H](Cc1c(Cl)c[n+]([O-])cc1Cl)c1ccc(OC(F)F)c(OCC2CC2)c1)C1SCCN1S(=O)(=O)c1ccccc1 (stereo partly drawn) [Compound 57, 3,5-dichloro-4-((2S)-2-(3-(cyclopropylmethoxy)-4-(difluoromethoxy)phenyl)-2-(3-(phenylsulfonyl)thiazolidine-2-carbonyloxy)ethyl)pyridine 1-oxide]
Second: O=C(O[C@@H](Cc1c(Cl)c[n+]([O-])cc1Cl)c1ccc(OC(F)F)c(OCC2CC2)c1)C1SCCN1S(=O)(=O)c1cccnc1 (stereo partly drawn) [Compound 66, 3,5-dichloro-4-((2S)-2-(3-(cyclopropylmethoxy)-4-(difluoromethoxy)phenyl)-2-(3-(pyridin-3-ylsulfonyl)thiazolidine-2-carbonyloxy)ethyl)pyridine 1-oxide]
The IC50 of the first is higher: 100 to 1000 pM for the first, < 100 pM for the second.

First: O=C1NC(=O)c2cc(S(=O)(=O)N3CCSC3C(=O)O[C@@H](Cc3c(Cl)c[n+]([O-])cc3Cl)c3ccc(OC(F)F)c(OCC4CC4)c3)ccc21 (stereo partly drawn) [Compound 58, 3,5-dichloro-4-((2S)-2-(3-(cyclopropylmethoxy)-4-(difluoromethoxy)phenyl)-2-(3-(1,3-dioxoisoindolin-5-ylsulfonyl)thiazolidine-2-carbonyloxy)ethyl)pyridine 1-oxide]
Second: NS(=O)(=O)c1cccc(S(=O)(=O)N2CCSC2C(=O)O[C@@H](Cc2c(Cl)c[n+]([O-])cc2Cl)c2ccc(OC(F)F)c(OCC3CC3)c2)c1 (stereo partly drawn) [Compound 59, 3,5-dichloro-4-((2S)-2-(3-(cyclopropylmethoxy)-4-(difluoromethoxy)phenyl)-2-(3-(3-sulfamoylphenylsulfonyl)thiazolidine-2-carbonyloxy)ethyl)pyridine 1-oxide]
The IC50 of the first is higher: 100 to 1000 pM for the first, < 100 pM for the second.

Cc1ccc(S(=O)(=O)N2CCSC2C(=O)O[C@@H](Cc2c(Cl)c[n+]([O-])cc2Cl)c2ccc(OC(F)F)c(OCC3CC3)c2)c(C)c1 (stereo partly drawn) [Compound 61, 3,5-dichloro-4-((2S)-2-(3-(cyclopropylmethoxy)-4-(difluoromethoxy)phenyl)-2-(3-(2,4-dimethylphenylsulfonyl)thiazolidine-2-carbonyloxy)ethyl)pyridine 1-oxide] and O=C(O[C@@H](Cc1c(Cl)c[n+]([O-])cc1Cl)c1ccc(OC(F)F)c(OCC2CC2)c1)C1SCCN1S(=O)(=O)c1ccc(F)cc1F (stereo partly drawn) [Compound 67, 3,5-dichloro-4-((2S)-2-(3-(cyclopropylmethoxy)-4-(difluoromethoxy)phenyl)-2-(3-(2,4-difluorophenylsulfonyl)thiazolidine-2-carbonyloxy)ethyl)pyridine 1-oxide] fall in the same range of IC50: 100 to 1000 pM for the first, 100 to 1000 pM for the second.

First: O=C(O[C@@H](Cc1c(Cl)c[n+]([O-])cc1Cl)c1ccc(OC(F)F)c(OCC2CC2)c1)C1SCCN1S(=O)(=O)c1cccs1 (stereo partly drawn) [Compound 62, 3,5-dichloro-4-((2S)-2-(3-(cyclopropylmethoxy)-4-(difluoromethoxy)phenyl)-2-(3-(thiophen-2-ylsulfonyl)thiazolidine-2-carbonyloxy)ethyl)pyridine 1-oxide]
Second: Cn1ccnc1S(=O)(=O)N1CCSC1C(=O)O[C@@H](Cc1c(Cl)c[n+]([O-])cc1Cl)c1ccc(OC(F)F)c(OCC2CC2)c1 (stereo partly drawn) [Compound 64, 3,5-dichloro-4-((2S)-2-(3-(cyclopropylmethoxy)-4-(difluoromethoxy)phenyl)-2-(3-(1-methyl-1H-imidazol-2-ylsulfonyl)thiazolidine-2-carbonyloxy)ethyl)pyridine 1-oxide]
The IC50 of the first is higher: 100 to 1000 pM for the first, < 100 pM for the second. The second is the more potent here.

For O=C(O[C@@H](Cc1c(Cl)c[n+]([O-])cc1Cl)c1ccc(OC(F)F)c(OCC2CC2)c1)C1SCCN1S(=O)(=O)c1ccc(F)cc1Cl (stereo partly drawn) [Compound 68, 3,5-dichloro-4-((2S)-2-(3-(2-chloro-4-fluorophenylsulfonyl)thiazolidine-2-carbonyloxy)-2-(3-(cyclopropylmethoxy)-4-(difluoromethoxy)phenyl)ethyl)pyridine 1-oxide], the IC50 was 100 to 1000 pM.
